Assay results reported in patent US8822444B2, “Hepatitis C virus inhibitors” (Bristol-Myers Squibb Company, priority 2009, dated 2014).

What follows are molecules tested on HCV 1b genotype (assay: HCV Replicon assay). Settings: HCV 1b genotype replicon; read-out: 1b EC50 Range.
Assay type: cell-based
Protocol: An HCV Replicon assay was utilized in the present disclosure, and was prepared, conducted and validated as described in commonly owned PCT/US2006/022197 and in O'Boyle et. al. Antimicrob Agents Chemother. 2005 April; 49(4):1346-53. Assay methods incorporating luciferase reporters have also been used as described (Apath.com).
HCV-neo replicon cells and replicon cells containing mutations in the NS5A region were used to test the currently described family of compounds. The compounds were determined to have more than 10-fold less inhibitory activity on cells containing mutations than wild-type cells. Thus, the compounds of the present disclosure can be effective in inhibiting the function of the HCV NS5A protein and are understood to be as effective in combinations as previously described in application PCT/US2006/022197 and commonly owned WO/04014852. Further, the compounds of the present disclosure can be effective against the HCV 1b genotype. It should also be understood that the compounds of the present disclosure can inhibit multiple genotypes of HCV. […] In one embodiment, compounds of the present disclosure are inhibitory versus 1a, 1b, 2a, 2b, 3a, 4a, and 5a genotypes.
`COC(=O)N[C@@H](C)C(=O)N1CCC[C@H]1c1nc(C2=CCC(c3ccc(-c4c[nH]c([C@@H]5CCCN5C(=O)[C@H](C)NC(=O)OC)n4)cc3)CC2)c[nH]1` (stereo partly drawn) [QC-10, methyl ((1S)-2-((2S)-2-(4-(4-(4-(2-((2S)-1-(N-(methoxycarbonyl)-1-alanyl)-2-pyrrolidinyl)-1H-imidazol-4-yl)-3-cyclohexen-1-yl)phenyl)-1H-imidazol-2-yl)-1-pyrrolidinyl)-1-methyl-2-oxoethyl)carbamate] gave an EC50 of 4.57 to 99 nM.
In the case of `COC(=O)N[C@H](C(=O)N1CCC[C@H]1c1nc(-c2ccc(C3CCC(c4c[nH]c([C@@H]5CCCN5C(=O)[C@@H](NC(=O)OC)C(C)C)n4)CC3)cc2)c[nH]1)C(C)C` (stereo partly drawn) [QC-17, methyl ((1S)-1-(((2S)-2-(4-(4-(4-(2-((2S)-1-((2S)-2-((methoxycarbonyl)amino)-3-methylbutanoyl)pyrrolidin-2-yl)-1H-imidazol-4-yl)phenyl)cyclohexyl)-1H-imidazol-2-yl)pyrrolidin-1-yl)carbonyl)-2-methylpropyl)carbamate], the EC50 is reported as 2 to 4.57 nM.

Same assay, conditions: Hepatitis C virus; HCV 1b genotype replicon; read-out: 1b EC50 (in nM or range)
Work on `COC(=O)N[C@H](C(=O)N1CCC[C@H]1c1nc(C2CCC(C3CCC(c4c[nH]c([C@@H]5CCCN5C(=O)[C@@H](NC(=O)OC)[C@@H](C)OC)n4)CC3)CC2)c[nH]1)[C@@H](C)OC` (stereo partly drawn) [QC-8, methyl ((1S,2R)-2-methoxy-1-(((2S)-2-(4-(4′-(2-((2S)-1-(N-(methoxycarbonyl)-O-methyl-L-threonyl)-2-pyrrolidinyl)-1H-imidazol-4-yl)-1,1′-bi(cyclohexyl)-4-yl)-1H-imidazol-2-yl)-1-pyrrolidinyl)carbonyl)propyl)carbamate] yielded an EC50 of 2.4 nM.

Same assay, conditions: Hepatitis C virus; HCV 1b genotype replicon; read-out: 1b EC50 Range
With `COC(=O)N[C@H](C(=O)N1CCC[C@H]1c1nc(C2CCC(C3CCC(c4c[nH]c([C@@H]5CCCN5C(=O)[C@@H](NC(=O)OC)[C@@H](C)OC)n4)CC3)CC2)c[nH]1)[C@@H](C)OC` (stereo partly drawn) [QC-8, methyl ((1S,2R)-2-methoxy-1-(((2S)-2-(4-(4′-(2-((2S)-1-(N-(methoxycarbonyl)-O-methyl-L-threonyl)-2-pyrrolidinyl)-1H-imidazol-4-yl)-1,1′-bi(cyclohexyl)-4-yl)-1H-imidazol-2-yl)-1-pyrrolidinyl)carbonyl)propyl)carbamate] the EC50 was 100 to 999 nM.
Work on `COC[C@H](NC(=O)OC)C(=O)N1CCC[C@H]1c1nc(C2=CCC(c3ccc(-c4c[nH]c([C@@H]5CCCN5C(=O)[C@H](COC)NC(=O)OC)n4)cc3)CC2)c[nH]1` (stereo partly drawn) [QC-11, methyl ((1S)-2-((2S)-2-(4-(4-(4-(2-((2S)-1-(N-(methoxycarbonyl)-O-methyl-L-seryl)-2-pyrrolidinyl)-1H-imidazol-4-yl)-3-cyclohexen-1-yl)phenyl)-1H-imidazol-2-yl)-1-pyrrolidinyl)-1-(methoxymethyl)-2-oxoethyl)carbamate] yielded an EC50 of 4.57 to 99 nM.
For `COC(=O)N[C@H](C(=O)N1CCC[C@H]1c1nc(C2=CCC(c3ccc(-c4c[nH]c([C@@H]5CCCN5C(=O)[C@@H](NC(=O)OC)[C@@H](C)OC)n4)cc3)CC2)c[nH]1)[C@@H](C)OC` (stereo partly drawn) [QC-12, methyl ((1S,2R)-2-methoxy-1-(((2S)-2-(4-(4-(4-(2-((2S)-1-(N-(methoxycarbonyl)-O-methyl-L-threonyl)-2-pyrrolidinyl)-1H-imidazol-4-yl)-3-cyclohexen-1-yl)phenyl)-1H-imidazol-2-yl)-1-pyrrolidinyl)carbonyl)propyl)carbamate], the EC50 was 4.57 to 99 nM.
Work on `COC(=O)N[C@H](C(=O)N1CCC[C@H]1c1nc(-c2ccc(N3CCC(c4c[nH]c([C@@H]5CCCN5C(=O)[C@@H](NC(=O)OC)C(C)C)n4)CC3)cc2)c[nH]1)C(C)C` [QC-13, methyl ((1S)-1-(((2S)-2-(4-(1-(4-(2-((2S)-1-((2S)-2-((methoxycarbonyl)amino)-3-methylbutanoyl)-2-pyrrolidinyl)-1H-imidazol-4-yl)phenyl)-4-piperidinyl)-1H-imidazol-2-yl)-1-pyrrolidinyl)carbonyl)-2-methylpropyl)carbamate] yielded an EC50 of 4.57 to 99 nM.
`COC[C@H](NC(=O)OC)C(=O)N1CCC[C@H]1c1nc(-c2ccc(N3CCC(c4c[nH]c([C@@H]5CCCN5C(=O)[C@H](COC)NC(=O)OC)n4)CC3)cc2)c[nH]1` [QC-14, methyl ((1S)-2-((2S)-2-(4-(4-(4-(2-((2S)-1-(N-(methoxycarbonyl)-O-methyl-L-seryl)-2-pyrrolidinyl)-1H-imidazol-4-yl)-1-piperidinyl)phenyl)-1H-imidazol-2-yl)-1-pyrrolidinyl)-1-(methoxymethyl)-2-oxoethyl)carbamate] was tested, and the EC50 was 100 to 999 nM.
Molecule `COC(=O)N[C@H](C(=O)N1CCC[C@H]1c1nc(-c2ccc(N3CCC(c4c[nH]c([C@@H]5CCCN5C(=O)[C@@H](NC(=O)OC)C(C)(C)C)n4)CC3)cc2)c[nH]1)C(C)(C)C` [QC-15, methyl ((1S)-1-(((2S)-2-(4-(1-(4-(2-((2S)-1-((2S)-2-((methoxycarbonyl)amino)-3,3-dimethylbutanoyl)-2-pyrrolidinyl)-1H-imidazol-4-yl)phenyl)-4-piperidinyl)-1H-imidazol-2-yl)-1-pyrrolidinyl)carbonyl)-2,2-dimethylpropyl)carbamate] has an EC50 of 4.57 to 99 nM.
